Measurements published in US6656937B2, “Substituted glutarimides and their use as inhibitors of IL-12 production” (Gruenenthal, GmbH, priority 2000, dated 2003).
Where a name gives a salt, the structure may show the parent alone.

Row | Compound | melting point
1 | CN(CC1CCC(=O)NC1=O)c1ccccc1 (stereo not drawn) [Example 11.10, 3-[(N-methyl-N-phenylamino)methyl]piperidine-2,6-dione] | 132 to 134 °C
2 | NC(=O)c1ccccc1CN[C@@H]1CCC(=O)NC1=O (as salt: hydrobromid) [Example 8.12, 2-[(3R)-(2,6-dioxopiperidin-3-ylamino)methyl]benzamide] | 232 to 233 °C
3 | Cc1ccccc1CNC1CCC(=O)NC1=O (racemic) (as salt: hydrochloride) [Example 2.16, 3-(2-methylbenzylamino) piperidine-2,6-dione] | 235 to 240 °C
4 | O=C1CCC(CNc2ccc(C(c3ccccc3)(c3ccccc3)c3ccccc3)cc2)C(=O)N1 (stereo not drawn) [Example 11.6, 3-[(4-tritylphenylamino)methyl]piperidine-2,6-dione] | 221 to 225 °C
5 | O=C1CCC(NCc2ccc(F)cc2Cl)C(=O)N1 (racemic) (as salt: hydrochloride) [Example 2.13, 3-(2-chloro-4-fluorobenzylamino) piperidine-2,6-dione] | 241 to 242 °C
6 | O=C1CCC(CNc2cccc(C(F)(F)F)c2)C(=O)N1 (stereo not drawn) [Example 11.2, 3-[(3-trifluoromethylphenylamino)methyl]piperidine-2,6-dione] | 135 to 138 °C
7 | O=C1CCC(NCc2ccc(F)cc2)C(=O)N1 (racemic) (as salt: hydrochloride) [Example 2.23, 3-(4-fluorobenzylamino) piperidine-2,6-dione] | 241 to 242 °C
8 | O=C1CCC(NCc2cc(F)cc(F)c2)C(=O)N1 (racemic) (as salt: hydrochloride) [Example 2.5, 3-(3,5-difluorobenzylamino) piperidine-2,6-dione] | 230 to 236 °C (dec.)
9 | O=C1CCC(CNc2cccc3ccccc23)C(=O)N1 (stereo not drawn) [Example 11.3, 3-(naphth-1-ylaminomethyl) piperidine-2,6-dione] | 145 to 148 °C
10 | COc1ccc(NCC2CCC(=O)NC2=O)cc1 (stereo not drawn) [Example 11.13, 3-[(4-methoxyphenylamino)methyl]piperidine-2,6-dione] | 131 to 134 °C
11 | O=C1CCC(NCc2ccc(Cl)cc2Cl)C(=O)N1 (racemic) (as salt: hydrochloride) [Example 2.28, 3-(2,4-dichlorobenzylamino) piperidine-2,6-dione] | 240 to 242 °C
12 | O=C1CCC(NCc2ccccc2Br)C(=O)N1 (racemic) (as salt: hydrochloride) [Example 2.30, 3-(2-bromobenzylamino) piperidine-2,6-dione] | 244 to 246 °C
13 | O=C1CCC(NCc2cc(Cl)cc(Cl)c2)C(=O)N1 (racemic) (as salt: hydrochloride) [Example 2.17, 3-(3,5-dichlorobenzylamino) piperidine-2,6-dione] | 234 to 238 °C
14 | NC(=O)c1ccccc1NCC1CCC(=O)NC1=O (stereo not drawn) [Example 11.15, 2-[(2,6-dioxopiperidin-3-ylmethyl)amino]benzamide] | 203 to 206 °C
15 | Cc1cccc(Cl)c1CNC1CCC(=O)NC1=O (racemic) (as salt: hydrochloride) [Example 2.15, 3-(2-chloro-6-methylbenzylamino) piperidine-2,6-dione] | 238 to 240 °C
16 | O=C1CCC(NCc2cc(Cl)ccc2Cl)C(=O)N1 (racemic) (as salt: hydrochloride) [Example 2.40, 3-(2,5-dichlorobenzylamino) piperidine-2,6-dione] | 242 to 246 °C
17 | O=C1CCC(NCc2cccc(Br)c2)C(=O)N1 (racemic) (as salt: hydrochloride) [Example 2.35, 3-(3-bromobenzylamino) piperidine-2,6-dione] | 229 to 232 °C
18 | O=C1CCC(NCc2cc(C(F)(F)F)cc(C(F)(F)F)c2)C(=O)N1 (racemic) (as salt: hydrochloride) [Example 2.34, 3-[3,5-bis(trifluoromethyl)benzylamino]piperidine-2,6-dione] | 263 to 265 °C
19 | O=C1CCC(NCc2ccc(OC(F)(F)F)cc2)C(=O)N1 (racemic) (as salt: hydrochloride) [Example 2.36, 3-(4-trifluoromethoxybenzylamino) piperidine-2,6-dione] | 253 to 255 °C
20 | CC(=O)c1cccc(NCC2CCC(=O)NC2=O)c1 (stereo not drawn) [Example 11.9, 3-[(3-acetylphenylamino)methyl]piperidine-2,6-dione] | 129 to 132 °C
21 | O=C1CCC(NCc2cccc(OC(F)(F)F)c2)C(=O)N1 (racemic) (as salt: hydrochloride) [Example 2.11, 3-(3-trifluoromethoxybenzylamino) piperidine-2,6-dione] | 199 to 201 °C
22 | O=C1CCC(NCc2cccc(Cl)c2Cl)C(=O)N1 (racemic) (as salt: hydrochloride) [Example 2.32, 3-(2,3-dichlorobenzylamino) piperidine-2,6-dione] | 246 to 248 °C
23 | Cc1cccc(CNC2CCC(=O)NC2=O)c1 (racemic) (as salt: hydrochloride) [Example 2.20, 3-(3-methylbenzylamino) piperidine-2,6-dione] | 240 to 242 °C

Row | Compound | melting point
24 | Cc1ccc(CNC2CCC(=O)NC2=O)cc1 (racemic) (as salt: hydrochloride) [Example 2.38, 3-(4-methylbenzylamino) piperidine-2,6-dione] | 256 °C (dec.)
25 | O=C1CCC(NCc2ccc(Cl)cc2)C(=O)N1 (racemic) (as salt: hydrochloride) [Example 2.37, 3-(4-chlorobenzylamino) piperidine-2,6-dione] | 262 to 265 °C
26 | O=C1CCC(NCc2cccc3ccccc23)C(=O)N1 (racemic) (as salt: hydrochloride) [Example 2.6, 3-[(naphth-1-ylmethyl)amino]piperidine-2,6-dione] | 188 °C (dec.)
27 | O=C1CCC(NCc2cccc(F)c2F)C(=O)N1 (racemic) (as salt: hydrochloride) [Example 2.7, 3-(2,3-difluorobenzylamino) piperidine-2,6-dione] | 206 to 212 °C (dec.)
28 | COc1cccc(CNC2CCC(=O)NC2=O)c1 (racemic) (as salt: hydrochloride) [Example 2.41, 3-(3-methoxybenzylamino) piperidine-2,6-dione] | 217 to 219 °C
29 | O=C1CCC(NCc2c(F)cccc2F)C(=O)N1 (racemic) (as salt: hydrochloride) [Example 2.3, 3-(2,6-difluorobenzylamino) piperidine-2,6-dione] | 208 to 215 °C (dec.)
30 | O=C1CCC(NCc2ccc(C(F)(F)F)cc2)C(=O)N1 (racemic) (as salt: hydrochloride) [Example 2.21, 3-(4-trifluoromethylbenzylamino) piperidine-2,6-dione] | 252 to 255 °C
31 | COc1ccc(CNC2CCC(=O)NC2=O)c(OC)c1 (racemic) (as salt: hydrochloride) [Example 2.2, 3-(2,4-dimethoxybenzylamino) piperidine-2,6-dione] | 214 °C (dec.)
32 | O=C1CCC(CNc2ccc(-c3ccccc3)cc2)C(=O)N1 (stereo not drawn) [Example 11.4, 3-(biphenyl-4-ylaminomethyl) piperidine-2,6-dione] | 135 to 138 °C
33 | NC(=O)c1ccccc1CN[C@H]1CCC(=O)NC1=O (as salt: hydrobromid) [Example 8.3, 2-[(3S)-(2,6-dioxopiperidin-3-ylamino)methyl]benzamide] | 155 to 156 °C (dec.)
34 | O=C1CCC(CNc2ccc(Br)cc2)C(=O)N1 (stereo not drawn) [Example 11.1, 3-[(4-bromophenylamino)methyl]piperidine-2,6-dione] | 149 to 150 °C
35 | O=C1CCC(NCc2ccc(Cl)c(Cl)c2)C(=O)N1 (racemic) (as salt: hydrochloride) [Example 2.33, 3-(3,4-dichlorobenzylamino) piperidine-2,6-dione] | 252 to 254 °C
36 | CC(=O)c1ccc(NCC2CCC(=O)NC2=O)cc1 (stereo not drawn) [Example 11.16, 3-[(4-acetylphenylamino)methyl]piperidine-2,6-dione] | 160 °C
37 | O=C1CCC(NCc2cc(F)ccc2F)C(=O)N1 (racemic) (as salt: hydrochloride) [Example 2.4, 3-(2,5-difluorobenzylamino) piperidine-2,6-dione] | 208 °C (dec.)
38 | O=C1CCC(CNc2cccc(C(=O)c3ccccc3)c2)C(=O)N1 (stereo not drawn) [Example 11.17, 3-[(3-benzoylphenylamino)methyl]piperidine-2,6-dione] | 152 to 158 °C
39 | NNC(=O)c1ccccc1CN[C@H]1CCC(=O)NC1=O (as salt: hydrobromid) [Example 8.6, 2-[(3S)-(2,6-dioxopiperidin-3-ylamino)methyl]benzoic acid hydrazide] | 241 to 242 °C
40 | O=C1CCC(CSCCc2ccccc2)C(=O)N1 (stereo not drawn) [Example 13.2, 3-phenethylsulfanylmethyl piperidine-2,6-dione] | 78 °C
41 | O=C1CCC(NCc2ccc3ccccc3c2)C(=O)N1 (racemic) [Example 2.12, 3-[(naphth-2-ylmethyl)amino]piperidine-2,6-dione] | 120 to 125 °C (dec.)
42 | CCOc1ccccc1CNC1CCC(=O)NC1=O (racemic) (as salt: hydrochloride) [Example 2.39, 3-(2-ethoxybenzylamino) piperidine-2,6-dione] | 208 to 212 °C
43 | O=C1CCC(NCc2ccccc2C(F)(F)F)C(=O)N1 (racemic) (as salt: hydrochloride) [Example 2.1, 3-(2-trifluoromethylbenzylamino) piperidine-2,6-dione] | > 250 °C (dec.)
44 | O=C1CCC(NCc2cccc(Cl)c2)C(=O)N1 (racemic) (as salt: hydrochloride) [Example 2.26, 3-(3-chlorobenzylamino) piperidine-2,6-dione] | 237 to 238 °C
45 | O=C1CCC(NCc2cc(F)cc(C(F)(F)F)c2)C(=O)N1 (racemic) (as salt: hydrochloride) [Example 2.18, 3-[3-fluoro-5-(trifluoromethyl)benzylamino]piperidine-2,6-dione] | 241 to 243 °C
